The results in this text go back to article PMC8319832, “Fine-Tuning of Alkaline Residues on the Hydrophilic Face Provides a Non-toxic Cationic α-Helical Antimicrobial Peptide Against Antibiotic-Resistant ESKAPE Pathogens” (Frontiers in Microbiology, 2021).

Holding throughout (test): Drug sensitivity, Kirby-Bauer test
Common to all, as to set-up: key: 'S' represents susceptibility; 'I' represents intermediate efficacy; 'R' represents resistance

One assay has as its system K. pneumoniae 9126. The format is cell-based, Klebsiella pneumoniae. The settings on record: clinical isolate, CRE. The protocol: (§1) The bacteria used in this study included the standard strains S. aureus ATCC29213 and ATCC25923, E. faecalis ATCC29212, E. coli ATCC25922 and ATCC35218, A. baumannii ATCC19606, K. pneumoniae ATCC700603 and P. aeruginosa ATCC27853, these strains were purchased from the China Center of Type Culture Collection (CCTCC). The antimicrobial activities of the peptides were also determined against clinically isolated strains S. aureus 4188, 9124, 1176, S. epidermidis 9092, 6943, 888, E. faecalis 901, E. faecium 898, E. coli 2678, 2687, K. pneumoniae 9126, P. aeruginosa 9014, 9042, and A. baumannii 906, 13012, 13079, 9068, these strains were acquired from Taihe Hospital, Hubei University of Medicine. The drug sensitivities of the clinical isolates to the antibiotics were determined by the Kirby-Bauer test ([Chinnambedu et al., 2020]).

The next assay deals with A. baumannii 13079. The format is cell-based, Acinetobacter baumannii. The settings on record: clinical isolate, CRE, MDR. The protocol:
as §1

The test system of another assay is A. baumannii 9068. The class given is cell-based, Acinetobacter baumannii. The settings on record: clinical isolate, CRE, MDR. The protocol: as §1
A further assay relates to A. baumannii 906. The format is cell-based, Acinetobacter baumannii. The settings on record: clinical isolate, CRE, MDR. As to the method: as §1
The subject of another assay is A. baumannii 13012. The format is cell-based, Acinetobacter baumannii. The settings on record: clinical isolate, CRE, MDR. As to the method: as §1
Another assay concerns P. aeruginosa 9014. The format is cell-based, Pseudomonas aeruginosa. The settings on record: clinical isolate, CRE, MDR. The protocol:
as §1

The next assay concerns P. aeruginosa 9042. The class given is cell-based, Pseudomonas aeruginosa. The settings on record: clinical isolate. The protocol:
as §1

The test system of the next assay is E. coli 2687. The class given is cell-based, Escherichia coli. The settings on record: clinical isolate, ESBL. The protocol:
as §1

In a further assay the test system is E. coli 2678. The format is cell-based, Escherichia coli. The settings on record: clinical isolate, ESBL. As to the method:
as §1

In a further assay the test system is S. epidermidis 9092. The class given is cell-based. The settings on record: clinical isolate, MRSE. As to the method:
as §1

The subject of a further assay is S. epidermidis 6943. The class given is cell-based. The settings on record: clinical isolate, MRSE. The protocol: as §1
In a further assay the test system is S. epidermidis 888. The class given is cell-based. The settings on record: clinical isolate. The protocol: as §1
In a further assay the test system is S. aureus 4188. The class given is cell-based, Staphylococcus aureus. The settings on record: clinical isolate. As to the method:
as §1

The next assay deals with S. aureus 1176. The class given is cell-based, Staphylococcus aureus. The settings on record: clinical isolate. As to the method: as §1
A further assay has as its system S. aureus 9124. The format is cell-based, Staphylococcus aureus. The settings on record: clinical isolate, MRSA. As to the method: as §1
A further assay relates to E. faecium 898. The class given is cell-based, Enterococcus faecium. The settings on record: clinical isolate. The protocol: as §1

As for `NCC[C@H](O)C(=O)N[C@@H]1C[C@H](N)[C@@H](O[C@H]2O[C@H](CN)[C@@H](O)[C@H](O)[C@H]2O)[C@H](O)[C@H]1O[C@H]1O[C@H](CO)[C@@H](O)[C@H](N)[C@H]1O` [Amikacin], the “Drug sensitivity of the isolate to the antibiotic” value (from here on “Drug sensitivity of the isolate”) in the assay with K. pneumoniae 9126 is on record as “S”; in the assay with A. baumannii 13079 it was “R”; in the assay with A. baumannii 9068, “R”; with A. baumannii 906, “R”; in the assay on A. baumannii 13012, “R”; in the assay with P. aeruginosa 9014, “S”. In addition, the “Drug sensitivity of the isolate” value with P. aeruginosa 9042, with E. coli 2687 and with E. coli 2678 was “S” throughout.
For the compound `CC1(C)S[C@@H]2[C@H](NC(=O)[C@H](N)c3ccccc3)C(=O)N2[C@H]1C(=O)O` [Ampicillin], the “Drug sensitivity of the isolate” value in the assay on K. pneumoniae 9126, in the assay on P. aeruginosa 9014, with P. aeruginosa 9042, in the assay with E. coli 2687 and in the assay on E. coli 2678 was “R” each time.
On to `CO[C@@]1(NC(=O)Cc2cccs2)C(=O)N2C(C(=O)O)=C(COC(N)=O)CS[C@@H]21` [Cefoxitin], for which the “Drug sensitivity of the isolate” value in the assay on S. epidermidis 9092 was “R”; in the assay with S. epidermidis 6943, “R”; in the assay with S. epidermidis 888, “I”; in the assay on S. aureus 4188, “R”; in the assay with S. aureus 1176 it was “R”; with S. aureus 9124, “R”.
In the case of `CC(C)(O/N=C(\C(=O)N[C@@H]1C(=O)N2C(C(=O)[O-])=C(C[n+]3ccccc3)CS[C@H]12)c1csc(N)n1)C(=O)O` [Ceftazidime], the “Drug sensitivity of the isolate” value in the assay with K. pneumoniae 9126, in the assay with A. baumannii 13079, in the assay on A. baumannii 9068, in the assay on A. baumannii 906, with A. baumannii 13012 and with P. aeruginosa 9014 was “R” in each case. For the same compound, the entries for the “Drug sensitivity of the isolate” value with P. aeruginosa 9042, with E. coli 2687 and in the assay on E. coli 2678 were “S”, “R” and “S”, respectively.
For `C[C@@H](O)[C@H]1C(=O)N2C(C(=O)O)=C(SCCN=CN)C[C@H]12` [Imipenem], the “Drug sensitivity of the isolate” value in the assay with K. pneumoniae 9126, in the assay with A. baumannii 13079, in the assay on A. baumannii 9068, in the assay with A. baumannii 906, in the assay on A. baumannii 13012 and in the assay on P. aeruginosa 9014 was “R” throughout. The “Drug sensitivity of the isolate” value with P. aeruginosa 9042 is recorded as “R”; in the assay with E. coli 2687 it was “S”; in the assay on E. coli 2678, “S”.
With `C[C@H]1COc2c(N3CCN(C)CC3)c(F)cc3c(=O)c(C(=O)O)cn1c23` [Levofloxacin], the “Drug sensitivity of the isolate” value with E. faecium 898 is “R”; with K. pneumoniae 9126, “S”; in the assay with A. baumannii 13079, “R”; in the assay with A. baumannii 9068, “R”; in the assay with A. baumannii 906, “R”; in the assay on A. baumannii 13012, “R”. Also, the “Drug sensitivity of the isolate” value in the assay on P. aeruginosa 9014 is recorded as “R”; with P. aeruginosa 9042, “R”; in the assay with S. epidermidis 9092, “R”; in the assay on S. epidermidis 6943, “I”; with S. epidermidis 888, “R”; with E. coli 2687, “R”. Moreover, the “Drug sensitivity of the isolate” value is on record as “R” with E. coli 2678, “S” in the assay on S. aureus 4188, “S” in the assay with S. aureus 1176 and “S” with S. aureus 9124.
Turning to `C[C@@H](O)[C@H]1C(=O)N2C(C(=O)O)=C(S[C@@H]3CN[C@H](C(=O)N(C)C)C3)[C@H](C)[C@H]12` [Meropenem], the “Drug sensitivity of the isolate” value with K. pneumoniae 9126 was “S”; with A. baumannii 13079 it was “R”; in the assay with A. baumannii 9068, “R”; in the assay on A. baumannii 906, “R”; in the assay with A. baumannii 13012, “R”; in the assay with P. aeruginosa 9014 it was “I”. Moreover, the entries for the “Drug sensitivity of the isolate” value with P. aeruginosa 9042, in the assay with E. coli 2687 and with E. coli 2678 were “R”, “S” and “S”, respectively.
`Cc1onc(-c2ccccc2)c1C(=O)N[C@@H]1C(=O)N2[C@@H]1SC(C)(C)[C@@H]2C(=O)O` [Oxazocilline]: the “Drug sensitivity of the isolate” value in the assay with S. epidermidis 9092 is given as “R”; with S. epidermidis 6943 it was “R”; with S. epidermidis 888 it was “S”; in the assay on S. aureus 4188, “S”; in the assay on S. aureus 1176 it was “S”; in the assay on S. aureus 9124, “R”.
Turning to `CN(C)[C@@H]1C(O)=C(C(N)=O)C(=O)[C@@]2(O)C(O)=C3C(=O)c4c(O)cccc4[C@@](C)(O)[C@H]3C[C@@H]12` [Tetracycline], the “Drug sensitivity of the isolate” value with E. faecium 898 is given as “R”; in the assay on S. epidermidis 9092, “R”; in the assay with S. epidermidis 6943, “S”; in the assay with S. epidermidis 888, “R”; in the assay on S. aureus 4188, “S”; in the assay on S. aureus 1176 it was “S”. Also, the “Drug sensitivity of the isolate” value in the assay on S. aureus 9124 is reported as “R”.
In the case of Piperacillin/tazobactam, the “Drug sensitivity of the isolate” value is “S” with K. pneumoniae 9126; “R” with A. baumannii 13079; “R” in the assay with A. baumannii 9068; “R” with A. baumannii 906; “R” in the assay with A. baumannii 13012; “R” in the assay on P. aeruginosa 9014. The “Drug sensitivity of the isolate” value in the assay on P. aeruginosa 9042, with E. coli 2687 and in the assay on E. coli 2678 was “S” each time.
Turning to Ticarcillin/clavulanic acid, the “Drug sensitivity of the isolate” value in the assay on K. pneumoniae 9126 is given as “S”; in the assay with A. baumannii 13079, “R”; in the assay with A. baumannii 9068 it was “R”; with A. baumannii 906, “R”; in the assay on A. baumannii 13012 it was “R”; in the assay with P. aeruginosa 9014 it was “R”. Besides, the “Drug sensitivity of the isolate” value is “R” in the assay with P. aeruginosa 9042 and “S” in the assay with E. coli 2678.
